From PubChem BioAssay AID1259408 (Genetic Toxicology Data Bank (GENE-TOX), 2018)
Calls of active or inactive are those of the source. The rule behind the calls is not given here.

Test system: GENE-TOX genotoxicity assays, various organisms and cells
Assay: GENE-TOX mutagenicity studies
Settings: for call: Assay Type: In vivo carcinogenicity studies, Assay Code: CCG+
[1] = Species/Cell Type: Drosophila melanogaster, Assay Type: Sex-linked recessive lethal gene mutation, Assay Code: SRL+, Evaluation Type: Evaluation A (Pre-1980)
[2] = Species/Cell Type: Escherichia coli polA (W3119 vs P3478), Assay Type: Rec-assay, DNA effects (bacterial DNA repair), Assay Code: RE1+, Evaluation Type: Evaluation A (Pre-1980)
[3] = Species/Cell Type: Nonhuman, Evaluation Type: Evaluation A (Pre-1980)
[4] = Species/Cell Type: Salmonella typhimurium, Assay Type: Forward and reverse gene mutation, host-mediated assay, Assay Code: HMA+, Evaluation Type: Evaluation A (Pre-1980)
[5] = Species/Cell Type: Syrian hamster embryo (SHE) cells, Assay Type: Cell transformation, clonal assay, Assay Code: CTC+, Evaluation Type: Evaluation A (Pre-1980)
[6] = Species/Cell Type: Salmonella typhimurium (one or more of the five standard strains: TA98, TA100, TA1535, TA1537, and TA1538), Assay Type: Histidine reverse gene mutation, Ames assay, Assay Code: SALT, Evaluation Type: Evaluation A (Pre-1980)
[7] = Species/Cell Type: Human, Sex: Male, Assay Type: Sperm morphology, Assay Code: SPHT, Evaluation Type: Evaluation A (Pre-1980)

Q: What does the source list for CNNCc1ccc(C(=O)NC(C)C)cc1?
A: mutagenic call (Species/Cell Type: Drosophila melanogaster, Assay Type: Aneuploidy, partial sex chromosome loss, chromosome aberrations, Assay Code: DAP-M, Evaluation Type: Evaluation A (Pre-1980)): inactive; negative; mutagenic call (Species/Cell Type: Drosophila melanogaster, Assay Type: Aneuploidy, whole sex chromosome loss, chromosome aberrations, Assay Code: DAC+M, Evaluation Type: Evaluation A (Pre-1980)): active; positive; mutagenic call [1]: active; positive; mutagenic call (Species/Cell Type: Drosophila melanogaster, Sex: Male, Assay Type: Heritable translocation test, chromosome aberrations, Assay Code: DHT-, Evaluation Type: Evaluation A (Pre-1980)): inactive; negative; mutagenic call [2]: active; positive; mutagenic call (Species/Cell Type: Fischer rat embryo (RLV/1706) cells, Assay Type: Cell transformation, viral enhanced, Assay Code: CTR+, Evaluation Type: Evaluation A (Pre-1980)): active; positive; mutagenic call (Species/Cell Type: Human lymphocytes, Assay Type: Sister-chromatid exchange (SCE) in vitro, Assay Code: SCL+, Evaluation Type: Evaluation B (Post-1980)): active; positive; mutagenic call (Species/Cell Type: Human, Assay Type: Sister-chromatid exchange (SCE) in vitro, Assay Code: SC1+, Evaluation Type: Evaluation B (Post-1980)): active; positive; mutagenic call (Species/Cell Type: Mammalian polychromatic erythrocytes, Assay Type: Micronucleus test, chromosome aberrations, Assay Code: MNT+, Evaluation Type: Evaluation A (Pre-1980)): active; positive; mutagenic call (Species/Cell Type: Mouse (BALB/c-3T3) cells, Assay Type: Cell transformation, Assay Code: CTB-, Evaluation Type: Evaluation A (Pre-1980)): inactive; negative; mutagenic call (Species/Cell Type: Mouse lymphoma (L5178Y) cells, Assay Type: Forward gene mutation at the thymidine kinase (TK) locus, chromosome aberrations, Assay Code: L51+, Evaluation Type: Evaluation A (Pre-1980)): active; positive; mutagenic call (Species/Cell Type: Mouse, Sex: Female, Assay Type: Spot test, gene mutation, Assay Code: MST+, Evaluation Type: Evaluation A (Pre-1980)): active; positive; mutagenic call (Species/Cell Type: Mouse, Sex: Male, Assay Type: Heritable translocation test, chromosome aberrations, Assay Code: HTT+, Evaluation Type: Evaluation A (Pre-1980)): active; positive; mutagenic call (Species/Cell Type: Mouse, Sex: Male, Assay Type: Specific locus test, gene mutation, Assay Code: SLT+, Evaluation Type: Evaluation A (Pre-1980)): active; positive; mutagenic call (Species/Cell Type: Mouse, Sex: Male, Assay Type: Sperm morphology, Assay Code: SPI+, Evaluation Type: Evaluation A (Pre-1980)): active; positive; mutagenic call (Species/Cell Type: Neurospora crassa, Assay Type: Forward gene mutation, Assay Code: NEF+, Evaluation Type: Evaluation A (Pre-1980)): active; positive; call [3]: active; positive; mutagenic call (Species/Cell Type: Nonhuman, Assay Type: Sister-chromatid exchange (SCE) in vivo, Assay Code: SC3+D, Dose Response: With dose response, Evaluation Type: Evaluation A (Pre-1980)): active; positive; mutagenic call (Species/Cell Type: Rabbit, Sex: Male, Assay Type: Sperm morphology, Assay Code: SPR+, Evaluation Type: Evaluation A (Pre-1980)): active; positive; mutagenic call (Species/Cell Type: Rodents, Sex: Male, Assay Type: Dominant lethal test, Assay Code: DLT+, Evaluation Type: Evaluation A (Pre-1980)): active; positive; mutagenic call (Species/Cell Type: Saccharomyces cerevisiae, Assay Type: Mitotic recombination or gene conversion, Assay Code: YEC+/-*, Activation: With metabolic activation, Evaluation Type: Evaluation A (Pre-1980)): inactive; positive without activation, negative with activation; mutagenic call (Species/Cell Type: Saccharomyces cerevisiae, Assay Type: Mitotic recombination or gene conversion, Assay Code: YEH+/-*, Activation: With metabolic activation, Evaluation Type: Evaluation A (Pre-1980)): inactive; positive without activation, negative with activation; mutagenic call (Species/Cell Type: Saccharomyces cerevisiae, Assay Type: Reverse gene mutation, Assay Code: YER+/-*, Activation: With metabolic activation, Evaluation Type: Evaluation A (Pre-1980)): inactive; positive without activation, negative with activation; mutagenic call (Species/Cell Type: Salmonella typhimurium (one or more of the five standard strains: TA98, TA100, TA1535, TA1537, and TA1538), Assay Type: Histidine reverse gene mutation, Ames assay, Assay Code: SAL-, Evaluation Type: Evaluation A (Pre-1980)): inactive; negative; mutagenic call [4]: active; positive; mutagenic call [5]: active; positive

Q: For Cc1cc(C)cc(OC(=O)N(C)N=O)c1, which mutagenic call (Species/Cell Type: Bacillus subtilis (H17 vs M45T), Assay Type: Rec-assay, spot test, DNA effects (bacterial DNA repair), Assay Code: REX+, Evaluation Type: Evaluation A (Pre-1980)) is on record?
A: active; positive

Q: What about the mutagenic call (Species/Cell Type: Escherichia coli WP2, Assay Type: Tryptophan reverse gene mutation, Assay Code: WP2+, Evaluation Type: Evaluation A (Pre-1980)) of the same compound?
A: active; positive

Q: How did the mutagenic call (Species/Cell Type: Allium cepa, Assay Type: Chromosome aberrations, Assay Code: ALC-, Evaluation Type: Evaluation A (Pre-1980)) turn out when COC12C(=O)N(C)C(=O)N(C)C1(OC)N(C)C(=O)N2C (stereo unspecified) was run?
A: inactive; negative

Q: For CCCCN(CCCC(=O)NCC(=O)O)N=O, which mutagenic call [6] is on record?
A: no conclusion

Q: How did the mutagenic call [6] turn out when Nc1c(O)cc(S(=O)(=O)O)c2ccccc12 was run?
A: no conclusion

Q: What does the source list for CCOP(=O)(OCC)Oc1nc(Cl)c(Cl)cc1Cl?
A: mutagenic call (Species/Cell Type: Nonhuman, Assay Type: Sister-chromatid exchange (SCE) in vitro, Assay Code: SC2T, Evaluation Type: Evaluation B (Post-1980)): no conclusion; mutagenic call (Species/Cell Type: Nonhuman, Assay Type: Sister-chromatid exchange (SCE) in vivo, Assay Code: SC3-, Evaluation Type: Evaluation B (Post-1980)): inactive; negative

Q: C#CC(C)OC(=O)Nc1cccc(Cl)c1 (stereo unspecified) (tested in a mixture with another compound) was tested. Which mutagenic call (Species/Cell Type: Saccharomyces cerevisiae, Assay Type: Mitotic recombination or gene conversion, Assay Code: YEC-, Evaluation Type: Evaluation A (Pre-1980)) did it give?
A: inactive; negative

Q: Which results are given for CCN(CC)CCn1c2ccc(CO)c3c2c([n+]1[O-])-c1ccc(Cl)cc1S3?
A: mutagenic call (Species/Cell Type: Salmonella typhimurium (one or more of the five standard strains: TA98, TA100, TA1535, TA1537, and TA1538), Assay Type: Histidine reverse gene mutation, Ames assay, Assay Code: SAL+, Evaluation Type: Evaluation A (Pre-1980)): active; positive; mutagenic call [6]: no conclusion; mutagenic call (Species/Cell Type: Salmonella typhimurium, Assay Type: Forward and reverse gene mutation, body fluid assay, Assay Code: BFU+, Evaluation Type: Evaluation A (Pre-1980)): active; positive; mutagenic call [4]: active; positive

Q: CC1(C)S[C@@H]2[C@H](NC(=O)[C@H](N)c3ccccc3)C(=O)N2[C@H]1C(=O)O was tested. Which mutagenic call (Species/Cell Type: Escherichia coli polA (W3119 vs P3478), Assay Type: Rec-assay, DNA effects (bacterial DNA repair), Assay Code: RE1-, Evaluation Type: Evaluation A (Pre-1980)) did it give?
A: inactive; negative

Q: With CC(C)C[C@H](NC(=O)CNC(=O)[C@H](Cc1ccc(O)cc1)NC(=O)[C@H](CO)NC(=O)[C@H](Cc1c[nH]c2ccccc12)NC(=O)[C@H](Cc1cnc[nH]1)NC(=O)[C@@H]1CCC(=O)N1)C(=O)N[C@@H](CCCN=C(N)N)C(=O)N1CCC[C@H]1C(=O)NCC(N)=O as the compound, how does the mutagenic call [7] read?
A: no conclusion

Q: How did the mutagenic call [2] turn out when Nc1ccc(Cl)cc1 was run?
A: active; positive

Q: And the mutagenic call (Species/Cell Type: Saccharomyces cerevisiae, Assay Type: Mitotic recombination or gene conversion, Assay Code: YEH-, Evaluation Type: Evaluation A (Pre-1980))?
A: inactive; negative

Q: What about the mutagenic call [5] of the same compound?
A: active; positive

Q: Which mutagenic call (Species/Cell Type: Nonhuman, Assay Type: Sister-chromatid exchange (SCE) in vivo, Assay Code: SC3T, Evaluation Type: Evaluation B (Post-1980)) does the source give for COc1ccc2c(c1)C(=O)N(CCc1ccc(S(=O)(=O)NC(=O)NC3CCCCC3)cc1)C(=O)C2(C)C here?
A: no conclusion

Q: For O=C1CN(/N=C/c2ccc([N+](=O)[O-])o2)C(=O)N1CO, which mutagenic call [7] is on record?
A: no conclusion

Q: For CS(=O)(=O)OC/C=C/COS(C)(=O)=O, which mutagenic call [1] is on record?
A: active; positive

Q: COc1ccc(/C=N/NC(=O)COc2ccc(Br)cc2CN(C)C)cc1 was tested. Which mutagenic call (Species/Cell Type: Saccharomyces cerevisiae, Assay Type: Reverse gene mutation, Assay Code: YERT, Evaluation Type: Evaluation A (Pre-1980)) did it give?
A: no conclusion

Q: CCOc1ccc(NC(C)=O)cc1 was tested. Which mutagenic call (Species/Cell Type: Mammalian polychromatic erythrocytes, Assay Type: Micronucleus test, chromosome aberrations, Assay Code: MNT+, Evaluation Type: Evaluation B (Post-1980)) did it give?
A: active; positive

Q: What about the call [3] of the same compound?
A: active; positive

Q: What about the mutagenic call (Species/Cell Type: Nonhuman, Assay Type: Sister-chromatid exchange (SCE) in vivo, Assay Code: SC3+, Evaluation Type: Evaluation B (Post-1980)) of the same compound?
A: active; positive

Q: With OC[C@@H](O)C(O)[C@@H](O)CO (stereo partly specified) as the compound, how does the mutagenic call (Species/Cell Type: Human, Assay Type: Sister-chromatid exchange (SCE) in vitro, Assay Code: SC1-, Evaluation Type: Evaluation B (Post-1980)) read?
A: inactive; negative

Q: What about the mutagenic call (Species/Cell Type: Salmonella typhimurium, Assay Type: Forward and reverse gene mutation, body fluid assay, Assay Code: BFU-, Evaluation Type: Evaluation A (Pre-1980)) of the same compound?
A: inactive; negative

Q: What about the mutagenic call (Species/Cell Type: Salmonella typhimurium, Assay Type: Forward and reverse gene mutation, host-mediated assay, Assay Code: HMA-, Evaluation Type: Evaluation A (Pre-1980)) of the same compound?
A: inactive; negative

Q: With NCCC[C@H](N)C(=O)O as the compound, how does the mutagenic call (Species/Cell Type: Human, Sex: Male, Assay Type: Sperm morphology, Assay Code: SPH-, Evaluation Type: Evaluation A (Pre-1980)) read?
A: inactive; negative

Q: Which mutagenic call [6] does the source give for CN(CCCCO)N=O here?
A: no conclusion

Q: Which mutagenic call [6] does the source give for O=[N+]([O-])O.[Cr] here?
A: no conclusion
